Assays:
[1] = Measurement of relaxation time (T1 and T2 of intramolecular fluorine atoms) by 90 MHz NMR; assay type: physicochemical; set-up: unit not given here; details: 10mM aqueous solution
[2] = Measurement of imaging sensitivity (phantom experiment), 19F MRI; set-up: key to detectability as image at 500 mM / detectability as image at 100 mM / detectability as image at 50 mM / detectability as image at 10 mM / detectability as image at 5 mM / detectability as image at 1 mM / detectability as image at 500 μM / detectability as image at 100 μM: .smallcircle.: detectable as clear image; Δ: margially detectable as image; x: undetectable; details: 1.5 T; for detectability as image at 100 μM / detectability as image at 500 μM / detectability as image at 1 mM / detectability as image at 5 mM / detectability as image at 10 mM / detectability as image at 50 mM / detectability as image at 100 mM / detectability as image at 500 mM: 20 min, complexes GRASS TR 10/TE 2 msec, 5-FU spin echo TR 4500/TE 100 msec
Procedure: Measurement of imaging sensitivity (phantom experiment)
Each of metal complex solution with various concentration of the present invention was sealed in cylindrical acryl phantom with an inner diameter of 1 cm and a height of 10 cm and subject to imaging. SIGNA (1.5 T) available from GE was used as an MRI apparatus, and imaging was performed by using a surface coil 13 cm in diameter for fluorine. A GRASS method was used as a pulse sequence and measurement condition was as followed:
TR (repetition time)=10 msec;
The measurement was performed for 20 min., and the number of acquisition was 937. As references, alkaline aqueous solutions of 5-fluorouracil with various concentrations were imaged by an identical apparatus. […] The imaging time was 20 min., and the number of acquisition was twice. […] In contrast, each metal complex compound of the present […] of 0.5 mM to 5 mM.

| T1 [1] | T2 [1] | Compound | detectability as image at 100 μM [2] | detectability as image at 500 μM [2] | detectability as image at 1 mM [2] | detectability as image at 5 mM [2] | detectability as image at 10 mM [2] | detectability as image at 50 mM [2] | detectability as image at 100 mM [2] | detectability as image at 500 mM [2] | concentration required for detection as a clear image ([2]; 20 min imaging) [mM] |
| --- | --- | --- | --- | --- | --- | --- | --- | --- | --- | --- | --- |
| 3.27 | 2.83 | O=C(O)CN1CCCN(CC(=O)O)CCN(Cc2ccc(C(C(F)(F)F)(C(F)(F)F)C(F)(F)F)cc2)CCCN(CC(=O)O)CC1.[Gd] [Compound-10, gadolinium complex of 1-[4-[tris(trifluoromethyl)methyl]benzyl]-1,4,8,11-tetraazacyclotetradecane-4,8,11-triacetic acid] | – | – | – | – | – | – | – | – | – |
| – | – | O=C(O)CN1CCCN(CC(=O)O)CCN(CC(=O)O)CCCN(CCN(Cc2cc(C(F)(F)F)cc(C(F)(F)F)c2)Cc2cc(C(F)(F)F)cc(C(F)(F)F)c2)CC1.[Gd] [Compound-20, gadolinium complex of 1-[N""',N""'-bis[3,5-bis(trifluoromethyl)benzyl]aminoethyl]-1,4,8,11-tetraazacyclotetradecane-4,8,11-triacetic acid] | Δ | Δ | .smallcircle. | .smallcircle. | .smallcircle. | .smallcircle. | .smallcircle. | .smallcircle. | – |
| 12.6 | 9.31 | O=C(O)CN1CCCN(CC(=O)O)CCN(Cc2ccc(/C=C/c3cc(C(F)(F)F)cc(C(F)(F)F)c3)cc2)CCCN(CC(=O)O)CC1.[Gd] [Compound-13, gadolinium complex of 1-[4-[2-trans-(3,5-bis(trifluoromethyl)phenyl)vinyl]benzyl]-1,4,8,11-tetraazacyclotetradecane-4,8,11-triacetic acid] | x | x | Δ | .smallcircle. | .smallcircle. | .smallcircle. | .smallcircle. | .smallcircle. | – |
| 6.34 | 4.21 | gadolinium complex of 1-[N""'-[3,5-bis(trifluoromethyl)benzyl]aminoethyl]-1,4,8,11-tetraazacyclotetradecane-4,8,11-triacetic acid [Compound-21] | – | – | – | – | – | – | – | – | – |
| – | – | O=C(O)CN1CCCN(CC(=O)O)CCN(Cc2ccc(C(F)(F)F)cc2)CCCN(CC(=O)O)CC1.[Gd] [Compound-3] | x | x | Δ | Δ | .smallcircle. | .smallcircle. | .smallcircle. | .smallcircle. | – |
| 1.73 | 1.58 | gadolinium complex with 1-(2,2,2-trifluoroethyl)-1,4,8,11-tetraazacyclodecane-4,8,11-tetraacetic acid [Compound-1] | – | – | – | – | – | – | – | – | – |
| 2.11 | 1.79 | O=C(O)CN1CCN(CC(=O)O)CCN(Cc2cc(C(F)(F)F)cc(C(F)(F)F)c2)CCN(CC(=O)O)CC1.[Gd] [Compound-8, gadolinium complex of 1-[3,5-bis(trifluoromethyl)benzyl]1,4,7,10-tetraazacyclododecane-4,7,10-triacetic acid] | – | – | – | – | – | – | – | – | – |
| – | – | O=c1[nH]cc(F)c(=O)[nH]1 [Compound 5-FU, 5-fluorouracil, reference compound] | x | x | x | x | x | Δ | Δ | .smallcircle. | ≥ 500 |
| – | – | O=C(O)CN1CCCN(Cc2cc(C(F)(F)F)cc(C(F)(F)F)c2)CCN(CC(=O)O)CCCN(Cc2cc(C(F)(F)F)cc(C(F)(F)F)c2)CC1.[Gd] [Compound-5] | x | Δ | .smallcircle. | .smallcircle. | .smallcircle. | .smallcircle. | .smallcircle. | .smallcircle. | – |

| Compound | T1 [1] | T2 [1] | detectability as image at 100 μM [2] | detectability as image at 500 μM [2] | detectability as image at 1 mM [2] | detectability as image at 5 mM [2] | detectability as image at 10 mM [2] | detectability as image at 50 mM [2] | detectability as image at 100 mM [2] | detectability as image at 500 mM [2] | concentration required for detection as a clear image ([2]; 20 min imaging) [mM] |
| --- | --- | --- | --- | --- | --- | --- | --- | --- | --- | --- | --- |
| O=C(O)CN1CCCN(CC(=O)O)CCN(Cc2cc(C(F)(F)F)cc(C(F)(F)F)c2)CCCN(CC(=O)O)CC1.[Gd] [Compound-4, gadolinium complex of 1-[3,5-bis(trifluoromethyl)benzyl]-,1,4,8,11-tetraazacyclotetradecane-4,8,11-triacetic acid] | 2.16 | 1.82 | x | Δ | .smallcircle. | .smallcircle. | .smallcircle. | .smallcircle. | .smallcircle. | .smallcircle. | – |
| O=C(O)CN1CCCN(CC(=O)O)CCN(Cc2cc(C(F)(F)F)cc(C(F)(F)F)c2)CCCN(CC(=O)O)CC1.[Cu] [Compound-23, copper complex of 1-[3,5-bis(trifluoromethyl)benzyl]-1,4,8,11-tetraazacyclotetradecane-4,8,11-triacetic acid] | 36.5 | 24.9 | x | x | Δ | .smallcircle. | .smallcircle. | .smallcircle. | .smallcircle. | .smallcircle. | – |
| O=C([O-])CN1CCCN(CC(=O)[O-])CCN(Cc2cc(C(F)(F)F)cc(C(F)(F)F)c2)CCCN(CC(=O)[O-])CC1.[Cr+3] [Compound-24, chromium complex of 1-[3,5-bis(trifluoromethyl)benzyl]-1,4,8,11-tetraazacyclotetradecane-4,8,11-triacetic acid] | 15.5 | 10.4 | – | – | – | – | – | – | – | – | – |

— US5536491A, “^19 F poly aza macrocyclic MRI contrast medium” (Terumo Kabushiki Kaisha, priority 1993, dated 1996)
